This is an account of results in the C3SDB collision cross section collection.

The conditions of the series: instrument: TW, calibrated with polyalanine and drug standards.

Turning to `COC(=O)[C@H]1[C@H]2C[C@H]3c4[nH]c5ccccc5c4CCN3C[C@@H]2CC[C@@H]1O` [CORYNANTHINE], the “collision cross section (N2)” value ([M+H]+) is on record as 186 Å².

On to `C[C@H]1COC2=C1C(=O)C(=O)c1c2ccc2c1CCCC2(C)C` [CRYPTOTANSHINONE], for which, where the note is “[M+H]+”, the “collision cross section (N2)” value was 168 Å².

With `COc1cc2c(cc1OC)Cc1cc(OC)c(OC)cc1Cc1cc(OC)c(OC)cc1C2` [CYCLOVERATRYLENE], under “[M+H]+”, the “collision cross section (N2)” value stood at 213.9 Å².

On to `CC1(C)C(C=C(Cl)Cl)C1C(=O)OC(C#N)c1cccc(Oc2ccccc2)c1` (centres undefined) [CYPERMETHRIN], for which, under “[M+Na]+”, the “collision cross section (N2)” value is on record as 200.6 Å².

Consider `CC1(C)C(=O)C=C[C@@]2(C)C1CC(=O)[C@]1(C)C2CC[C@@]2(C)[C@H](c3ccoc3)OC(=O)[C@H]3O[C@]321` (some centres undefined) [DEACETOXY-7-OXOGEDUNIN], for which the “collision cross section (N2)” value ([M+H]+) was determined as 196.6 Å².

For the compound `Cc1c(O)c(=O)ccn1C` [DEFERIPRONE], the “collision cross section (N2)” value ([M+H]+) is given as 123.2 Å².

As to `CC(C)c1ccc2c(c1)CCC1C(C)(C(N)=O)CCCC21C` (centres undefined) [DEHYDROABIETAMIDE], the “collision cross section (N2)” value ([M+H]+) is 181.1 Å².

For `C[C@H](CCC(=O)O)[C@H]1CC[C@H]2[C@@H]3CC[C@@H]4C[C@H](O)CC[C@]4(C)[C@H]3C[C@H](O)[C@]12C` [DEOXYCHOLIC ACID], the “collision cross section (N2)” value ([M+Na]+) worked out at 196.7 Å².

For the compound `COc1ccc2c(c1)OCC(Cc1ccc(OC)c(OC(C)=O)c1)C2=O` (centres undefined) [DEOXYSAPPANONE B 7,3'-DIMETHYL ETHER ACETATE], the “collision cross section (N2)” value ([M+H]+) came to 177.9 Å².

Take `COc1ccc2c(c1)OCC(Cc1ccc(OC)c(OC)c1)C2=O` (centres undefined) [DEOXYSAPPANONE B TRIMETHYL ETHER]: the “collision cross section (N2)” value ([M+H]+) came out at 176.6 Å².

Turning to `CC(C)(CO)[C@@H](O)C(=O)NCCCO` [DEXPANTHENOL], where the note is “[M+H]+”, the “collision cross section (N2)” value is reported as 144.1 Å².

As for `CC(=O)Nc1ccc(OC(C)=O)cc1` [DIACETAMATE], the “collision cross section (N2)” value ([M+H]+) is 143.1 Å².

Consider `CC(=O)Nc1c(I)c(NC(C)=O)c(I)c(C(=O)O)c1I` [DIATRIZOIC ACID], for which the “collision cross section (N2)” value ([M+H]+) amounted to 176.3 Å².

As for `Oc1ccc(Cl)cc1Cc1cc(Cl)ccc1O` [DICHLOROPHENE], where the note is “[M+H]+”, the “collision cross section (N2)” value came out at 147.4 Å².

With `O=c1oc2ccccc2c(O)c1Cc1c(O)c2ccccc2oc1=O` [DICUMAROL], the “collision cross section (N2)” value ([M+H]+) is recorded as 182 Å².

Consider `CCN(CC)C(=O)c1cccc(C)c1` [DIETHYLTOLUAMIDE], for which the “collision cross section (N2)” value ([M+H]+) is 143.2 Å².

`CC(=O)OCC(=O)[C@@]1(OC(C)=O)[C@@H](C)C[C@H]2[C@@H]3C[C@H](F)C4=CC(=O)C=C[C@]4(C)[C@@]3(F)[C@@H](O)C[C@@]21C` [DIFLORASONE DIACETATE]: the “collision cross section (N2)” value ([M+H]+) worked out at 209.5 Å².

In the case of `COc1cc(OC)c(-c2c(OC)cc(OC)cc2OC)c(OC)c1` [DIFUCOL HEXAMETHYL ETHER], the “collision cross section (N2)” value ([M+H]+) was found to be 175.2 Å².

`C[C@]12CC[C@H](O)C[C@H]1CC[C@@H]1[C@@H]2C[C@@H](O)[C@]2(C)[C@@H](C3=CC(=O)OC3)CC[C@]12O` [DIGOXIGENIN]: for the setting “[M+H]+”, the “collision cross section (N2)” value came to 195.1 Å².

As for `C[C@H]1O[C@@H](O[C@H]2[C@@H](O)C[C@H](O[C@H]3[C@@H](O)C[C@H](O[C@H]4CC[C@@]5(C)[C@H](CC[C@@H]6[C@@H]5C[C@@H](O)[C@]5(C)[C@@H](C7=CC(=O)OC7)CC[C@]65O)C4)O[C@@H]3C)O[C@@H]2C)C[C@H](O)[C@@H]1O` [DIGOXIN], the “collision cross section (N2)” value ([M+H]+) was 322.5 Å².

Regarding `CC(=O)Oc1cc2c(c(C)c1OC(C)=O)CC=C1[C@@]2(C)CC[C@@]2(C)C3C[C@](C)(C(=O)O)CC[C@]3(C)CC[C@]12C` (some centres undefined) [DIHYDROCELASTRYL DIACETATE], where the note is “[M+Na]+”, the “collision cross section (N2)” value turned out to be 219.7 Å².

For `COC(=O)[C@@H]1OC(=O)C2OC23[C@@]1(C)CCC1[C@@]2(C)CCC(=O)C(C)(C)C2C[C@@H](OC(C)=O)[C@]13C` (some centres undefined) [DIHYDROGEDUNIC ACID, METHYL ESTER], for the setting “[M+Na]+”, the “collision cross section (N2)” value turned out to be 216.6 Å².

As for `C[C@@H]1CC[C@@]2(OC1)O[C@H]1C[C@H]3[C@@H]4CC=C5C[C@@H](O)CC[C@]5(C)[C@H]4CC[C@]3(C)[C@H]1[C@@H]2C` [DIOSGENIN], the “collision cross section (N2)” value ([M+H]+) is 208.4 Å².

In the case of `CC[C@H]1OC(=O)[C@H](C)[C@@H](O[C@H]2C[C@@](C)(OC)[C@@H](O)[C@H](C)O2)[C@H](C)[C@@H](O[C@@H]2O[C@H](C)C[C@H](N(C)C)[C@H]2O)[C@](C)(O)C[C@@H](C)[C@@H]2N[C@@H](COCCOC)O[C@H]([C@H]2C)[C@]1(C)O` [DIRITHROMYCIN], the “collision cross section (N2)” value ([M+H]+) amounted to 284.2 Å².

On to `O=c1[nH]c2ccccc2n1CCCN1CCC(n2c(=O)[nH]c3cc(Cl)ccc32)CC1` [DOMPERIDONE], for which the “collision cross section (N2)” value ([M+H]+) is 201.8 Å².

In the case of `O=C(CCCN1CC=C(n2c(=O)[nH]c3ccccc32)CC1)c1ccc(F)cc1` [DROPERIDOL], the “collision cross section (N2)” value ([M+H]+) is 195 Å².

For `CCOC(=O)COc1ccc2c(=O)cc(-c3ccccc3)oc2c1` [EFLOXATE], the “collision cross section (N2)” value ([M+H]+) is 177.4 Å².

Regarding `C=CCOC(Cn1ccnc1)c1ccc(Cl)cc1Cl` (centres undefined) [ENILCONAZOLE], under “[M+H]+”, the “collision cross section (N2)” value is reported as 165.2 Å².

Turning to `Oc1ccc([C@H]2Oc3cc(O)cc(O)c3C[C@H]2O)cc1` [EPIAFZELECHIN (2R,3R)(-)], the “collision cross section (N2)” value ([M+H]+) is 159.4 Å².

`COc1ccc([C@H]2Oc3cc(OC)cc(OC)c3C[C@H]2O)cc1` [EPIAFZELECHIN TRIMETHYL ETHER]: the “collision cross section (N2)” value ([M+H]+) is 170 Å².

Take `O=C(O[C@@H]1Cc2c(O)cc(O)cc2O[C@@H]1c1cc(O)c(O)c(O)c1)c1cc(O)c(O)c(O)c1` [EPIGALLOCATECHIN-3-MONOGALLATE]: the “collision cross section (N2)” value ([M+H]+) was 206.1 Å².

For `Oc1cc(O)c2c(c1)O[C@H](c1cc(O)c(O)c(O)c1)[C@H](O)C2` [EPIGALLOCATECHIN], the “collision cross section (N2)” value ([M+H]+) is listed as 165.5 Å².

`CCc1cccc2c3c([nH]c12)C(CC)(CC(=O)O)OCC3` (centres undefined) [ETODOLAC]: the “collision cross section (N2)” value ([M+H]+) came out at 164.4 Å².

`CC(=O)OC1CCC2(C)C3=C(CC[C@H]2C1(C)C)[C@@]1(C)CC[C@@H]([C@@H](C)CCC=C(C)C)[C@]1(C)CC3` (some centres undefined) [EUPHOL ACETATE]: the “collision cross section (N2)” value ([M+H]+) is listed as 218 Å².

Regarding `O=C1[C@H](CC[C@H](O)c2ccc(F)cc2)[C@@H](c2ccc(O)cc2)N1c1ccc(F)cc1` [EZETIMIBE], the “collision cross section (N2)” value ([M+Na]+) is given as 213.6 Å².

In the case of `CC(C)c1c(CN(C)C(C)Cc2ccccc2)n(C)n(-c2ccccc2)c1=O` (centres undefined) [FAMPROFAZONE], for the setting “[M+H]+”, the “collision cross section (N2)” value came to 190.9 Å².

For `COc1cc(/C=C/C(=O)O)ccc1O` [FERULIC ACID], the “collision cross section (N2)” value ([M+H]+) was determined as 128.8 Å².

Regarding `CC(C)(C)NC(=O)[C@H]1CC[C@H]2[C@@H]3CC[C@H]4NC(=O)C=C[C@]4(C)[C@H]3CC[C@]12C` [FINASTERIDE], the “collision cross section (N2)” value ([M+H]+) was determined as 200 Å².

Regarding `O=c1c(O)c(-c2ccc(O)c(O)c2)oc2cc(O)ccc12` [FISETIN], where the note is “[M+H]+”, the “collision cross section (N2)” value is given as 160.7 Å².

For the compound `Nc1nc(F)nc2c1ncn2[C@@H]1O[C@H](COP(=O)(O)O)[C@@H](O)[C@@H]1O` [FLUDARABINE PHOSPHATE], under “[M+H]+”, the “collision cross section (N2)” value is 168.8 Å².

In the case of `CC1(C)O[C@@H]2C[C@H]3[C@@H]4C[C@H](F)C5=CC(=O)C=C[C@]5(C)[C@H]4[C@@H](O)C[C@]3(C)[C@]2(C(=O)CO)O1` [FLUNISOLIDE], for the setting “[M+H]+”, the “collision cross section (N2)” value came to 199.8 Å².

Take `CC(C)C(=O)Nc1ccc([N+](=O)[O-])c(C(F)(F)F)c1` [FLUTAMIDE]: the “collision cross section (N2)” value ([M+H]+) is 160 Å².

Turning to `O=C(O)c1ccccc1OP(=O)(O)O` [FOSFOSAL], under “[M+H]+”, the “collision cross section (N2)” value came out at 138.4 Å².

For `Cc1cccc(C)c1NC(=O)c1ccccc1C(=O)O` [FTAXILIDE], for the setting “[M+H]+”, the “collision cross section (N2)” value is on record as 159.2 Å².

For the compound `Cc1cc(O)c(C=O)c2c1C(=O)Oc1c(COC(=O)/C=C/C(=O)O)c(O)c(C(=O)O)c(C)c1O2` [FUMARPROTOCETRARIC ACID], under “[M+H]+”, the “collision cross section (N2)” value was 204.5 Å².

`O=C1OC(CN2CCOCC2)CN1/N=C/c1ccc([N+](=O)[O-])o1` (centres undefined) [FURALTADONE]: for the setting “[M+H]+”, the “collision cross section (N2)” value amounted to 166.9 Å².

In the case of `O=c1c(O)c(-c2ccccc2)oc2cc(O)cc(O)c12` [GALANGIN], the “collision cross section (N2)” value ([M+H]+) came to 154.9 Å².

For the compound `O=C(O)c1cc(O)c(O)c(O)c1` [GALLIC ACID], where the note is “[M+H]+”, the “collision cross section (N2)” value was found to be 130.9 Å².

In the case of `COC(=O)c1c(OC)cc2c(c1C)Oc1c(Cl)c(O)c(Cl)c(C)c1C(=O)O2` [GANGALEOIDIN], for the setting “[M+H]+”, the “collision cross section (N2)” value turned out to be 186.4 Å².

For the compound `COc1c(N2CCNC(C)C2)c(F)cc2c(=O)c(C(=O)O)cn(C3CC3)c12` (centres undefined) [GATIFLOXACIN], the “collision cross section (N2)” value ([M+H]+) was 189.5 Å².

Regarding `Cc1ccc(S(=O)(=O)NC(=O)NN2CC3CCCC3C2)cc1` (centres undefined) [GLICLAZIDE], the “collision cross section (N2)” value ([M+H]+) amounted to 178 Å².

In the case of `OC[C@@H](O)[C@@H](O[C@@H]1O[C@H](CO)[C@@H](O)[C@H](O)[C@H]1O)[C@H](O)[C@@H](O)CO` [GLUCITOL-4-GUCOPYANOSIDE], the “collision cross section (N2)” value ([M+Na]+) stood at 174.3 Å².

As for `N[C@@H](C(=O)O)[C@@H](O)[C@H](O)[C@H](O)CO` [GLUCOSAMINIC ACID], the “collision cross section (N2)” value ([M+H]+) was determined as 138.8 Å².

Turning to `COc1ccc(Cl)cc1C(=O)NCCc1ccc(S(=O)(=O)NC(=O)NC2CCCCC2)cc1` [GLYBURIDE], the “collision cross section (N2)” value ([M+H]+) was found to be 205.9 Å².

For `Cc1cc2c(C(C)C)c(O)c(O)c(C=O)c2c(O)c1-c1c(C)cc2c(C(C)C)c(O)c(O)c(C=O)c2c1O` [GOSSYPOL], for the setting “[M+H-H2O]+”, the “collision cross section (N2)” value is on record as 228.1 Å².

As to `C[C@H]1CC[C@@H](C(C)(C)O)CC2=C1CC[C@@H]2C` [GUAIOL(-)], the “collision cross section (N2)” value ([M+H]+) came to 146.3 Å².

In the case of `NC(N)=NC(=O)Cc1c(Cl)cccc1Cl` [GUANFACINE], for the setting “[M+H]+”, the “collision cross section (N2)” value stood at 148.9 Å².

In the case of `CCOC(=O)c1c(C)cc(O)c(C=O)c1O` [HAEMATOMMIC ACID, ETHYL ESTER], the “collision cross section (N2)” value ([M+H]+) is 144 Å².

Consider `O=C(CCCN1CCC(O)(c2ccc(Cl)cc2)CC1)c1ccc(F)cc1` [HALOPERIDOL], for which the “collision cross section (N2)” value ([M+H]+) is listed as 191.7 Å².
